Source: US20230203022A1, “HETEROCYCLE AND GLUTARIMIDE SKELETON-BASED COMPOUND AND APPLICATIONS THEREOF” (Shanghaitech University, priority 2020, published 2023)

What was measured:
Format in all cases: cell-based
[1] = tested on: SR (anaplastic large cell lymphoma cell); assay: Cell viability / proliferation inhibition IC50 in SR lymphoma cells, 72 h, WST; settings: SR cell line, WST reagent
Excerpt: (§1) The tested cell line used were: Multiple myeloma cell line MM.1S, Mino (human mantle cell lymphoma cell), SR (anaplastic large cell lymphoma cell), PBMC (peripheral blood mononuclear cell), which were purchased from ATCC (American type Culture Collection). The medium was RPMI1640 supplemented with 10% FBS (fetal calf serum) and 1% Penicillin-Streptomycin. The cells used were identified as correct cells by STR cells, and were negative for mycoplasma through routine inspections.
(§2) IC50 values of the compounds of the present disclosure (including examples 1-11 compounds) were measured using Cell Titer Blue, Cell Titer GLO, or WST reagent from Promega Company. Assay details are as follows: Cells were seeded in 100 µL RPMI1640 complete medium containing serum at a density of 15,000 cells/well. After 24 h, the inoculated cells were treated with diluted commercial inhibitor and the compounds of the present disclosure to be tested after serial dilution. After the cells were treated with the compounds of the present disclosure to be tested (including examples 1-11 compounds) for 72 h, cell viability was determined after adding the cell viability detection kit listed above according to the reagent operating instructions. The negative control was DMSO, and the positive control was a commercial inhibitor, both of which were used to treat the cells through the same method as that of the compounds of the present disclosure. The growth inhibition of the compounds of the present disclosure on cells was plotted by Prism Graphpad software, and the IC50 values of the compounds of the present disclosure were calculated therefrom.
We tested the activities of the compounds of the present invention (including the compounds in Table 1 and Examples 1-11 compounds) in MM.1S cell, mantle cell lymphoma Mino cells, and anaplastic large cell lymphoma SR cells through a dose-dependent manner. These cells overexpressed IKZF⅓ and was not sensitive to existing immunomodulatory drugs. […]

[2] = tested on: Multiple myeloma cell line MM.1S; assay: Cell viability / proliferation inhibition IC50 in MM.1S cells, 72 h; settings: Homo sapiens, MM1.S, 72 h treatment
Excerpt: as §1, §2
(§3) We tested the activities of the compounds of the present invention (including the compounds in Table 1 and Examples 1-11 compounds) in MM.1S cell, mantle cell lymphoma Mino cells, and anaplastic large cell lymphoma SR cells through a dose-dependent manner. These cells overexpressed IKZF⅓ and was not sensitive to existing immunomodulatory drugs. The cells were treated with the compounds of the present invention at 10 different successively decreasing concentrations (starting at the highest concentration of 10 µM; 5-fold serial dilutions) for 72 h, and then the cell viability determination was performed in accordance with CCK-8 reagent operating instructions. The experiment was repeated more than three times.

[3] = tested on: Mino (human mantle cell lymphoma cell); assay: Cell viability / proliferation inhibition IC50 in Mino lymphoma cells, 72 h, WST; settings: Mino cell line, WST reagent
Excerpt: as §1, §2, §3

[4] = tested on: TNF-α; assay: TNF-α inhibition in LPS-stimulated PBMC cells (ELISA); settings: LPS 1 µg/ml, 18-20 h
Excerpt: as §1
PBMC cells were cultured at 37° C. in 5% CO2 atmosphere, and then seeded in 96-well plates at 1×10^6 cells/well. […] Cells were pretreated with compounds and vehicle control (DMSO) for 1 h, then stimulated with lipopolysaccharide (LPS; 1 µg/ml), and continually cultured for 18-20 h. Then, the supernatant was collected, and tested for TNF-α level by ELISA kit. IC50 was then calculated by Graphpad Prism 7.0.

[5] = biological target: T1, IKZF3 (Homo sapiens, UniProt Q96SW2+Q9UKT9); assay: Western blotting assay of IKZF3 degradation in MM.1S cells; settings: 16 h, Western blot, FIG. 1
T1 construct: degradation of IKZF1 and IKZF3 proteins caused by the compounds of the present invention in multiple myeloma cells MM.1S; endogenous in cells; host or cells: MM.1S (ATCC)
Description: Most antibodies were purchased from Cell Signaling Technology, including IKZF1 (#9034S), IKZF3(#15103S). GAPDH antibody was purchased from Abcam Company.
Tumor cells were plated in a 24-well plate at a cell seeding density of 3×10^5 cells/mL, with 1 mL culture media per well. After 24 h, the cells were treated with different concentrations of the compounds of the present disclosure. After 16 hours, the cells were collected, and washed with PBS. The supernatant was discarded, and the cells were placed on ice, and treated with RIPA protein lysate containing Halt protease and phosphatase inhibitor. The lysate was centrifuged at 10000 RPM at 4° C. for 10 minutes, and the supernatant was collected. An equal amount of proteins were loaded in 4X SDS sample solution, denatured at 95° C. for 5 minutes, and then freezed to -20° C. or directly subjected to protein electrophoresis (4-15% gradient gel, Bio-rad). […]
DC50 value (the drug concentration required for degrading proteins by 50%, abbreviated as DC50) reads method: comparing the gray values of the Western blotting bands for the drug treatment with the gray values of the Western blotting band for the DMSO control, and reading the drug concentration range corresponding to the gray value of the Western blotting bands for the drug treatment which is equal to half of the gray value of the Western blotting band for the DMSO control. […]

T1 sequence (Q9UKT9 whole entry): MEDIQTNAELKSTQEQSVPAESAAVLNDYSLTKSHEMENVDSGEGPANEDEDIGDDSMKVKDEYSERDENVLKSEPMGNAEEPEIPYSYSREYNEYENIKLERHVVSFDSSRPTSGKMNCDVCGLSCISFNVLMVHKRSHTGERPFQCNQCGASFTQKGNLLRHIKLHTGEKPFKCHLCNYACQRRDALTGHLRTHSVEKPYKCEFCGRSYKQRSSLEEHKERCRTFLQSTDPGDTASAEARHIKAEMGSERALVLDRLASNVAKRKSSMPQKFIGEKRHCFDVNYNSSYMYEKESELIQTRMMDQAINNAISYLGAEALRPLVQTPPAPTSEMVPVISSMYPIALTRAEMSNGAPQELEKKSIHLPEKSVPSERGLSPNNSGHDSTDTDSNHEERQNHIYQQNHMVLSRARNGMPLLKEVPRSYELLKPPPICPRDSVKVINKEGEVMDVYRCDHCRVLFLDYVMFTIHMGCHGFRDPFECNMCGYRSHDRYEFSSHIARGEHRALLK
T1 sequence (Q96SW2 whole entry): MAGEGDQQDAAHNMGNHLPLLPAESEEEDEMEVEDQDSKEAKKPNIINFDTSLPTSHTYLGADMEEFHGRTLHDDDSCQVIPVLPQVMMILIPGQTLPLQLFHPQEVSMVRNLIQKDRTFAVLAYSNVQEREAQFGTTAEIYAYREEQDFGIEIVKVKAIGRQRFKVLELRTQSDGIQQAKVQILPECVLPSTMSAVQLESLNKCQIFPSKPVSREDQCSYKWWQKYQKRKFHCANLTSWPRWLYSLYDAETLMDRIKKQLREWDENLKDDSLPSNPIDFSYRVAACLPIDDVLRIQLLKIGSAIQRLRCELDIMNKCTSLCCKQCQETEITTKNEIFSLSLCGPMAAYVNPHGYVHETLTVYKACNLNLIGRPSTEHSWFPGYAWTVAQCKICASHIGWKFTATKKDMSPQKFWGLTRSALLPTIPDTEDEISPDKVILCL
T1 sequence (Q16531 whole entry partner): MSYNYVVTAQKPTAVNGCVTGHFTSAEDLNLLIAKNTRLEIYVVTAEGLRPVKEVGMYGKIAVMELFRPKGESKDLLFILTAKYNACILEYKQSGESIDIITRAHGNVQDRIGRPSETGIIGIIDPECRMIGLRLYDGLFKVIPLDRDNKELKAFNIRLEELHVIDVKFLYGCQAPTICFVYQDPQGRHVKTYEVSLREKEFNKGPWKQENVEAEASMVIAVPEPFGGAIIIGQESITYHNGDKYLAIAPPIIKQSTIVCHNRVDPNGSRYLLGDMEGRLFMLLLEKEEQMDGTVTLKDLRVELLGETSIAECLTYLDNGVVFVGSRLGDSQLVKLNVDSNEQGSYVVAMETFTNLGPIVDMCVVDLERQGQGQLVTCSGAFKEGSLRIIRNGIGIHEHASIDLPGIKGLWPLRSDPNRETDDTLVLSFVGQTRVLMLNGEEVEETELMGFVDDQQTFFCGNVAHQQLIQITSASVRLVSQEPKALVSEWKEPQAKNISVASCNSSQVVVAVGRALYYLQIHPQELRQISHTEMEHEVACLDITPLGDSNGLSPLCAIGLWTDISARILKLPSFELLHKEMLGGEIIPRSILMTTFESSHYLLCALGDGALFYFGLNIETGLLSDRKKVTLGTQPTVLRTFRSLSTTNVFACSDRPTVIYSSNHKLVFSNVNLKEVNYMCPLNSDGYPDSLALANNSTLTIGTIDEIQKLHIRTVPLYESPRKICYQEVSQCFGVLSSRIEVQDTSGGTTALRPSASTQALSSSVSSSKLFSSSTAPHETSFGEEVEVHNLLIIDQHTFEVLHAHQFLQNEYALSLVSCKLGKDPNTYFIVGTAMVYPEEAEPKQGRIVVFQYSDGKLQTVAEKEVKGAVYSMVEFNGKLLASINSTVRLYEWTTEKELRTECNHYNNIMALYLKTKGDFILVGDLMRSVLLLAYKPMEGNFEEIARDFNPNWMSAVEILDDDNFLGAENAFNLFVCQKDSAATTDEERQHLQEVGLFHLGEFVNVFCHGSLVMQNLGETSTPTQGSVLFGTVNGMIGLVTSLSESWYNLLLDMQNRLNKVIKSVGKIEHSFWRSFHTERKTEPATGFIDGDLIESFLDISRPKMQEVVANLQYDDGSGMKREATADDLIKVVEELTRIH

Row | IC50 [2] [nM] | IC50 [4] [nM] | SMILES | also measured
1 | 0.181 | – | O=C1CCC(N2Cc3c(SCc4nc(CNC56CC7CC(CC(C7)C5)C6)cs4)cccc3C2=O)C(=O)N1 (centres unmarked) [SIAIS287129, 3-(4-(((4-((adamantan-1-ylamino)methyl)thiazol-2-yl)methyl)thio)-1-oxoisoindolin-2-yl)piperidine-2,6-dione] | IC50 ([1]; Homo sapiens, SR): 4.02 nM; IC50 ([3]; Homo sapiens, MINO): 2.59 nM
2 | 0.02 | < 1 | O=C1CCC(N2Cc3c(SCc4cc5cc(C(=O)NC67CC8CC(CC(C8)C6)C7)ccc5s4)cccc3C2=O)C(=O)N1 (centres unmarked) [SIAIS338091, N-(adamantan-1-yl)-2-(((2-(2,6-dioxopiperidin-3-yl)-1-oxoisoindolin-4-yl)thio)methyl)benzo[b]thiophene-5-carboxamide] | –
3 | – | < 5 | O=C1CCC(N2Cc3c(SCCn4cc(CN[C@]56CC7CC(C[C@@H](C7)C5)C6)nn4)cccc3C2=O)C(=O)N1 (some centres unmarked) [SIAIS287097, 3-(4-((2-(4-((adamantan-1-ylamino)methyl)-1H-1,2,3-triazol-1-yl)ethyl)thio)-1-oxoisoindolin-2-yl)piperidine-2,6-dione] | –
4 | 0.003 | < 1 | O=C1CCC(N2Cc3c(SCc4cc5cc(CNC67CC8CC(CC(C8)C6)C7)ccc5o4)cccc3C2=O)C(=O)N1 (centres unmarked) [SIAIS287116, 3-(4-(((5-((adamantan-1-ylamino)methyl)benzofuran-2-yl)methyl)thio)-1-oxoisoindolin-2-yl)piperidine-2,6-dione] | IC50 ([1]; Homo sapiens, SR): ~0.5 nM; IC50 [1]: 0.454 nM; concentration at which IKZF3 protein is significantly degraded [5]: less than 0.01 nM; IC50 ([3]; Homo sapiens, MINO): ~0.39 nM; IC50 [3]: 0.387 nM
5 | 0.06 ± 0.04 | – | O=C1CCC(N2Cc3c(SCc4ccc5cc(CN[C@]67CC8CC(C[C@@H](C8)C6)C7)ccc5n4)cccc3C2=O)C(=O)N1 (some centres unmarked) [SIAIS338048, 3-(4-(((6-((adamantan-1-ylamino)methyl)quinolin-2-yl)methyl)thio)-1-oxoisoindolin-2-yl)piperidine-2,6-dione] | –
6 | – | 10 to 100 | Nc1cccc2c1CN(C1CCC(=O)NC1=O)C2=O (centres unmarked) [Lenalidomide, reference compound] | –
7 | 0.16 ± 0.02 | – | O=C1CCC(N2Cc3c(SCc4nc(CN[C@H]5[C@H]6CC7CC(C6)C[C@@H]5C7)cs4)cccc3C2=O)C(=O)N1 (some centres unmarked) [SIAIS313185, 3-(4-(((4-((adamantan-2-ylamino)methyl)thiazol-2-yl)methyl)thio)-1-oxoisoindolin-2-yl)piperidine-2,6-dione] | –
8 | 0.09 ± 0.02 | – | O=C1CCC(N2Cc3c(SCc4ccc(CNC56CC7CC(CC(C7)C5)C6)o4)cccc3C2=O)C(=O)N1 (centres unmarked) [SIAIS313118, 3-(4-(((5-((adamantan-1-ylamino)methyl)furan-2-yl)methyl)thio)-1-oxoisoindolin-2-yl)piperidine-2,6-dione] | –
9 | – | – | Nc1cccc2c1C(=O)N(C1CCC(=O)NC1=O)C2=O (centres unmarked) [Pomalidomide, reference compound] | IC50 ([3]; Homo sapiens, MINO): 48 nM
10 | 4.46 ± 0.18 | < 5 | O=C1CCC(N2C(=O)c3cccc(NCc4ccc(CNC56CC7CC(CC(C7)C5)C6)cn4)c3C2=O)C(=O)N1 (centres unmarked) [SIAIS355067, 4-(((5-((adamantan-1-ylamino)methyl)pyridin-2-yl)methyl)amino)-2-(2,6-dioxopiperidin-3-yl)isoindoline-1,3-dione] | –
11 | 0.13 ± 0.03 | < 1 | O=C1CCC(N2Cc3c(SCc4csc(CNC56CC7CC(CC(C7)C5)C6)n4)cccc3C2=O)C(=O)N1 (centres unmarked) [SIAIS313160, 3-(4-(((2-((adamantan-1-ylamino)methyl)thiazol-4-yl)methyl)thio)-1-oxoisoindolin-2-yl)piperidine-2,6-dione] | –
12 | 0.51 ± 0.25 | – | O=C1CCC(N2Cc3c(SCc4csc(C(=O)NC56CC7CC(CC5C7)C6)n4)cccc3C2=O)C(=O)N1 (centres unmarked) [SIAIS355073, 4-(((2-(2,6-dioxopiperidin-3-yl)-1-oxoisoindolin-4-yl)thio)methyl)-N-(octahydro-2,5-methanopentalen-6a-yl)thiazole-2-carboxamide] | –
